≈ marks a conversion by molar mass, not a printed value.
How the values were obtained:
[1] = intravenous injection of 500 mg penicillin G; cited from earlier work
[2] = test system: bacteria in saliva of healthy volunteers; experiment: Inhibition of bacterial growth in the saliva in vivo (Example V); conditions: in theory, 0.1 ml saliva
Experimental: Five healthy adult volunteers, three men and two women, were asked to refrain from drinking or eating for two hours after breakfast. At the end of two hours, an aliquot of 0.1 ml of saliva was pipetted from the mouth of each volunteer and spread over the surface of a sheep blood agar plate with a sterile plastic loop. The inoculated blood agar plate was incubated in an aerobic atmosphere containing 5% CO2 as pre-medication control. Then 100 mg, 50 mg, 20 mg, 10 mg and 2 mg of penicillin G potassium dry powder, USP grade, were placed in the right buccal pouch with a spatula between the cheek and the lower gum of each volunteer, respectively. The volunteers were asked to retain the dissolved penicillin powder at the site of medication as concentrated as possible, not to be diluted by saliva from other parts of the mouth for one hour.
At the end of one hour, 0.1 ml of saliva from each volunteer was pipetted from the right buccal pouch where the medication was placed, and inoculated and spread onto the surface of a sheep blood agar plate. The inoculum was spread with a sterile plastic loop.

bacteria in human saliva = experiment: Inhibition of bacterial growth in human saliva in vitro (Example IV); type: cell-based
Experimental: For this study, five healthy adult volunteers, three men and two women, were asked to refrain from drinking and eating for two hours after breakfast. At the end of two hours, about five (5) ml of saliva was obtained from the oral cavity of each volunteer. Aliquots of 0.1 ml of saliva were pipetted immediately from each saliva sample and spread over the surface of two 5% sheep blood agar plates with a sterile plastic loop. One inoculated blood agar plate was incubated in an aerobic atmosphere containing 5% CO2, and the other anaerobically at 37° C. for 18 hours, as untreated controls.
Aliquots of 0.2 ml of the saliva from each volunteer's sample were pipetted into sterile test tubes, and labeled from No. 2 to No. 13. Five equal doses of dry powder of the USP grade penicillin G potassium salt, 200 mg each, were weighed and put into five sterile test tubes, all labeled No. 1. The dry powder of antibiotic was dissolved in 0.4 ml saliva obtained from each of the five volunteers to constitute an initial concentration of antibiotic concentration of […] in saliva. An aliquot of 0.2 ml of the saliva antibiotic solution was pipetted from tube No. 1 into tube No. 2. After having been thoroughly mixed, 0.2 ml of the content in tube No. 2 was pipetted to tube No. 3, and so forth continuously in succession to make a serial double dilution of penicillin G potassium solutions in saliva through tube No. 13. Finally, the test tubes contained different concentrations of penicillin G potassium in the saliva of five volunteers, as follows.
The mixtures of antibiotic and saliva in the test tubes were incubated at 37° C. One hour later, an aliquot of 0.1 ml was pipetted from the content of each tube, first dropped in the center of a blood agar plate and then spread to the periphery of the plate surface. The plates were incubated aerobically at 37° C. with 5% carbon dioxide in the atmosphere for 18 hours and were examined for bacterial growth.

[3] = test system: Gram-negative bacilli (Salmonella, Shigella, most Escherichia coli strains, all Proteus mirabilis strains and most Bacteroides strains); conditions: in vitro; cited from earlier work
[4] = test system: Staphylococcus aureus (ATCC 29213); experiment: MIC for standard strain used in saliva antibiotic assay (Examples I, II); type: cell-based; conditions: nutrient broth, 37° C., 18 hours
Excerpt: The final concentrations of oxytetracycline in the control standard nutrient broth were 0.25 mcg/ml, 0.5 mcg/ml, 1.0 mcg/ml, 2.0 mcg/ml, 4.0 mcg/ml, and 8.0 mcg/ml. The final dilutions of saliva sample were 1/50,000, 1/100,000, 1/200,000, 1/400,000, 1/800,000 and 1/1,600,000 for the peak concentration test tubes and 1/4,000. 1/8,000, 1/16,000 and 1/32,000 for the trough concentration test tubes. The Staphylococcus aureus (ATCC 29213) was also used as the standard test microorganism.

[5] = test system: Staphylococcus aureus ATCC 29213; experiment: MIC for standard strain used in saliva antibiotic assay (Examples VII-IX); type: cell-based; conditions: nutrient broth, 37° C., 18 hours
Experimental: Each filtered mixture in test tube was inoculated with 0.1 ml of a 1:1,000 dilution of a 12 hour broth culture of Staphylococcus aureus ATCC 29213.
A row of 6 test tubes each containing 2 ml of nutrient broth with decreasing concentrations of penicillin G potassium from 6.2 to 0.16 mcg/ml, using a serial double dilution method described in a., was prepared and similarly inoculated with 0.1 ml broth culture of Staphylococcus aureus ATCC 29213 as the standard.
All test tubes were incubated at 37° C. for 18 hours and observed for bacterial growth against an inoculated broth containing neither antibiotic nor saliva samples.
In this study, the drug powder was suspended in one teaspoonful of water and swallowed by the test subjects two hours after breakfast, followed by drinking an 8 Oz. glass of water. The test subjects refrained from drinking or eating for the next three hours. Six samples of saliva were collected from each subject at 30-minute intervals in succession in the next three hours. An aliquot of 0.2 ml from each saliva sample was transferred to 3.8 ml of nutrient broth. The mixture of the latter was forced to pass a bacterial filter. Two (2) ml of the bacteria-free filtrate was pipetted out into a sterile test tube and inoculated with 0.1 ml of a 1:1,000 dilution of a 12 hours broth culture of Staphylococcus aureus ATCC 29213 and incubated at 37° C. for 18 hours. […]

[6] = Topical treatment of patients with aphthous ulcers with troches; type: in vivo, human
Experimental: Patients with aphthous ulcers were advised to brush their teeth to rid them of food residues, and to rinse their mouths with water prior to initiating treatment. One penicillin/magnesium stearate troche was placed in the patients mouths directly over the ulcerated lesion. The troche was dissolved or disintegrated in a minimum amount of saliva directly over the ulcer in no more than 15 minutes, preferably in about 8 to about 12 minutes. The patients were advised to keep the ingredients of the disintegrated troche at the site of the lesion as long as possible. Food and beverages were avoided for one hour after each treatment. If multiple aphthous ulcers were present, only one troche is required for the treatment of a cluster of small ulcers. The topical treatments were conducted 4 times daily, for example, after breakfast, after lunch, after dinner and before bed time for no more than 4 days. […] The burning sensation lessened with subsequent applications.
For instance, the first sign of healing is usually the fading of the hyperemic zone at the periphery of the ulcer and the lessening of edema at the base of the ulcer. The membrane covering the ulcer becomes thinner, more translucent, more pearly white instead of a grayish-yellowish white prior to the application and contract with the troche. […]

[7] = Local concentration of penicillin in saliva after a troche containing 50 mg penicillin G; type: in vivo, human
Experimental: The local concentration of penicillin in the saliva was determined as follows. […] This loculated pocket of saliva was not swallowed and was not to be diluted with excess saliva from other parts of the mouth for one hour. Two samples were taken for assay to determine the peak and trough local concentrations of penicillin during the one-hour duration of medicinal treatment. At the time when the troche was completely dissolved and one hour later, aliquots of 10 microliters were pipetted from this pocket of saliva solution at the site of medication, representing the peak level and the trough level of antibiotic concentration, and transferred into 10 ml of distilled water to make a 1:1.000 dilution and into 1 ml of distilled water to make a 1:100 dilution, respectively. The diluted saliva antibiotic solutions were passed through a sterile bacteria-filter to remove any bacterial or fungal contaminants of the oral flora.
For determination of the peak concentration, 1 ml of the bacteria-free filtrate was further diluted with 9 ml of nutrient broth to achieve a 1:10,000 dilution of the saliva. Then a serial two-fold dilution was made of this 1:10,000 diluted saliva sample with an equal volume of nutrient broth in a roll of test tubes to obtain a series of 1 ml aliquots of nutrient broth in which the saliva was diluted to 20,000, 40,000, 80,000, 160,000, 320,000, 640,000, 1,280,000 and 2,560,000 folds respectively. […] Thus the final dilutions of the saliva sample were in the range of 40,000 to 5,120,000 folds.
For determining the trough concentration, the entire 1 ml of the 1:100 diluted saliva filtrate was used to make the serial dilutions so that the final dilutions of saliva sample were in the range of 4,000 to 256,000 folds in the final test culture.
As control standards, a series of test tubes containing 1 ml of nutrient broth with varying concentrations of penicillin G potassium salt ranging from 0.1 units to 10 units/ml were similarly mixed with an equal volume of nutrient broth freshly inoculated with the standard tubes of Staphylococcus aureus. Both the test and control standard tubes were incubated at 37° C. for 18 hours. Among the test tubes showing no gross evidence of bacterial growth, the one containing the highest dilution of saliva and the one containing the least amount of penicillin G were considered as having the identical concentration of penicillin, i.e. the MIC of the staphylococcus aureus.

[8] = test system: Staphylococcus aureus (ATCC 29213); conditions: standard strain; cited from earlier work
[9] = earlier treatments of oral infections / aphthous ulcers; cited from earlier work

Compound | average peak blood level [1] | theoretical dose sufficient for initial topical MIC concentration of 2 mg/ml [2] | bactericidal effect (bacteria in human saliva; 1 mg/ml, one hour's incubation) | MIC (bacteria in human saliva; Homo sapiens, read-out: MIC / concentration inhibiting growth of oral flora in saliva) | cut-off minimum inhibition concentration at which many Gram-negative bacilli fall into sensitive category [3] | MIC [4] | concentration at which bacteria grew to full turbidity [5] | adverse reactions ([6]; 4 days of penicillin medication) | state of ulcer membrane ([6]; after 4 days of penicillin medication) | initial concentration at the ulcer ([7]; assuming troche is dissolved in 0.1 ml of saliva) | local trough concentration in saliva ([7]; human, in vivo, 60 min) | concentration at 1 h ([7]; human, saliva, 50 mg, 50 mg troche, end of one hour, read-out: local trough concentration in saliva) | known minimum inhibitory concentration (MIC) [8] | MIC / concentration inhibiting growth of oral flora in saliva (bacteria in human saliva; in vitro, aerobic) | effectiveness of treatment [9]
CC1(C)S[C@@H]2[C@H](NC(=O)Cc3ccccc3)C(=O)N2[C@H]1C(=O)O [penicillin G] | 16 mcg/ml and about 16 mcg/ml and about 26 units/mi | 0.2 mg | not "bactericidal" within one hour's incubation time | 2000 µg/mL (≈ 5.98 mM) | ≤ 740 µg/mL | 1 unit/ml | – | – | – | – | – | – | – | – | –
CC1(C)S[C@@H]2[C@H](NC(=O)Cc3ccccc3)C(=O)N2[C@H]1C(=O)O [penicillin] | – | – | – | – | – | – | ≤ 0.37 µg/mL | no observed adverse reactions of stomatitis or discoloration of the tongue | only remnants of a thin pearly whitish membrane remain, if any | up to 500 mg/ml | about 12,000 Units per 1 ml saliva | ~7500 µg/mL | 0.25-2 units/mi | 2000 µg/mL | ineffective
